# pIC50: −log10 of the molar value.
# Tests used:
# p-AXL = target: T1, p-AXL (Homo sapiens, UniProt P30530); assay: Axl phosphorylation inhibition ELISA in HEK293T cells transfected with NanoLuc-tagged AXL; format: cell-based; settings: 1 h compound incubation, media (OptiMEM)
# T1 construct: expressed in transfected cells; host or cells: HEK293T
# T1 sequence (P30530 26-894): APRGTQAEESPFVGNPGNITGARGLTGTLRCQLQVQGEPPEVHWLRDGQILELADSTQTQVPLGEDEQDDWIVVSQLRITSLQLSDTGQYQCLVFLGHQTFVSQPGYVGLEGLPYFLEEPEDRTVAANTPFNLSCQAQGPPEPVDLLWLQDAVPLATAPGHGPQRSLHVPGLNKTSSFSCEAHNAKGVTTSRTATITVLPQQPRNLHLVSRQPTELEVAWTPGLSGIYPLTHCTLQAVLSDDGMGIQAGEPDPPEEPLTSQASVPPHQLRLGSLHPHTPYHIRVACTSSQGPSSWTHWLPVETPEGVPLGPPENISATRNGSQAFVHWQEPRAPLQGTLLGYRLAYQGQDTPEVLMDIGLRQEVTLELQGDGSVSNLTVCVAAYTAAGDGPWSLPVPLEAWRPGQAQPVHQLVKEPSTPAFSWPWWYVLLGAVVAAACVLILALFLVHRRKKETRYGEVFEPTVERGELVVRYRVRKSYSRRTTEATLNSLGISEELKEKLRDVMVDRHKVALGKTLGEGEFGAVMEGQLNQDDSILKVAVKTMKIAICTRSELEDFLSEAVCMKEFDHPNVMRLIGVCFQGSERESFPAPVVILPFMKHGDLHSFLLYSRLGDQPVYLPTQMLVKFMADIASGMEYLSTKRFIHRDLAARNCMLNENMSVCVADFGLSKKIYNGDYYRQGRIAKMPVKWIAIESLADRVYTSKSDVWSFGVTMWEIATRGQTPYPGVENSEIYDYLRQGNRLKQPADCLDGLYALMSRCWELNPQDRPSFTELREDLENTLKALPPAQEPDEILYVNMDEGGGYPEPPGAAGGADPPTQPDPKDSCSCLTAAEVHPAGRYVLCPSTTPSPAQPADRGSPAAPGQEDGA
# Summary of the method: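 Phospho-AXL detected by luminescence of NanoLuc tag after capture of cell lysate on biotinylated anti-phospho-tyrosine mAb plates (2 h). Lysates came from transiently transfected HEK293T cells treated 1 h at 37° C with serial 2-fold dilutions (22 points). IC50 by standard 4-parameter logistic fitting.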
# Axl = target: T2, Axl (Homo sapiens, UniProt P30530); assay: Biochemical potency, HTRF KinEASE-TK kinase assay; set-up: purchased Invitrogen; settings: 5 nM AXL, 700 μM ATP
# T2 sequence (P30530 26-894): T1 sequence (P30530 26-894)
# Summary of the method: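 Phosphorylation of a biotinylated tyrosine-kinase peptide (800 nM) by AXL (5 nM) or TYRO3/MER (1 nM) is measured at 700 µM ATP after 2 h at room temperature, following 1 h enzyme–compound preincubation. Signal is the time-resolved FRET ratio, converted to percent activity.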
# recombinant human MER = target: T3, recombinant human MER (Homo sapiens, UniProt Q12866); assay: Biochemical potency, HTRF KinEASE-TK kinase assay; settings: 1 nM MER, 700 μM ATP
# T3 construct: purchased Invitrogen
# T3 sequence (Q12866 21-999): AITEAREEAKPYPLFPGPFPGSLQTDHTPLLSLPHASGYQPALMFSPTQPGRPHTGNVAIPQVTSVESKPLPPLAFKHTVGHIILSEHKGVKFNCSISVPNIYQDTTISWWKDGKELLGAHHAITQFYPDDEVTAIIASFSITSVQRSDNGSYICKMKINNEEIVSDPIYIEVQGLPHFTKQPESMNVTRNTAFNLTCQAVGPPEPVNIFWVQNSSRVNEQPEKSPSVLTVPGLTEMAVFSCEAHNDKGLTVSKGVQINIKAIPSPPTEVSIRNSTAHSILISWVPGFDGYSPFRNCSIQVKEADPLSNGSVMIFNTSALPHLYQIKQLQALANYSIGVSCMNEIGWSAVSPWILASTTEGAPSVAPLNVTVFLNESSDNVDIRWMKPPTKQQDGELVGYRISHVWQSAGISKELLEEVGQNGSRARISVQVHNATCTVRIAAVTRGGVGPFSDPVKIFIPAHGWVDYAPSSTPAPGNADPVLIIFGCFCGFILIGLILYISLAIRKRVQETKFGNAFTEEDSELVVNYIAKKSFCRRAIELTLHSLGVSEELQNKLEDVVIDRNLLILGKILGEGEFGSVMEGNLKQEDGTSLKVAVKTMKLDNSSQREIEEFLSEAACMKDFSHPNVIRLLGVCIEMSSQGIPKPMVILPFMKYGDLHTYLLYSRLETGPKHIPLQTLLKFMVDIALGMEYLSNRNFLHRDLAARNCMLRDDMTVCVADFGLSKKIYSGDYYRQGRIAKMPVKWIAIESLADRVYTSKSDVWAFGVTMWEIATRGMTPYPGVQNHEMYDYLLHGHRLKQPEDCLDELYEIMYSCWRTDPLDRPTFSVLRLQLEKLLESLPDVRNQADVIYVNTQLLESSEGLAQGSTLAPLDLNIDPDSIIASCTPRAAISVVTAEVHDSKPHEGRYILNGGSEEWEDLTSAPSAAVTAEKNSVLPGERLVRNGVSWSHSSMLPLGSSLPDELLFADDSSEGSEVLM
# Experimental: Measurement of Biochemical Compound Potency of Axl Inhibitors
# Purified recombinant human AXL, TYRO3 and MER proteins were purchased from Invitrogen™. 10 nM AXL, 2 nM TYRO3 or MER were incubated with varying concentrations of compounds in 50 mM HEPES, pH 7.4, 10 mM MgCl2, 0.01% BSA, 1 mM DTT and 2% DMSO in a total volume of 20 μl in a 384-well microplate (Corning™ #3640) at RT for 1 h. The AXL, TYRO3 and MER enzymatic reaction was initiated by transferring 10 μl of enzyme and compound mixture into 10 μl of 1.6 μM TK Substrate-biotin (HTRF® KinEASE-TK kit, Cisbio) and 1400 μM ATP pre-incubated in 50 mM HEPES, pH 7.4, 10 mM MgCl2, 0.01% BSA, 1 mM DTT in a 384-well microplate (Corning™ #3640) at RT, giving the final reaction conditions: 5 nM AXL, 1 nM TYRO3 or MER, 800 nM TK Substrate-biotin and 700 μM ATP in 50 mM HEPES, pH 7.4, 10 mM MgCl2, 0.01% BSA, 1 mM DTT and 1% DMSO with varying concentrations of compounds. Following 2 h incubation at RT, the AXL, TYRO3 and MER enzymatic reaction was stopped by transfer of 10 μl of reaction into 10 μl of detection mix (400 nM Streptavidin-XL665, 200-fold dilution TK Antibody-Cryptate and detection buffer, HTRF® KinEASE-TK kit, Cisbio) in a white 384-well microplate (Perkin Elmer, OptiPlate 384). After 1 h incubation at RT, the plate was put into a plate reader (Evision) to read at 665/620 nm (acceptor/donor) for HTRF. The value of the DMSO blank (MIN inhibition=100% activity) was used as a negative control. The positive control was established by adding 5 μl of enzyme and DMSO mixture into 10 μl of detection mix followed by addition of 5 μl of TK Substrate-biotin and ATP mixture (MAX inhibition=0% activity). To calculate the percent activity, Equation 1 was used. Ratio665/620 is the value at a given compound concentration: […]
Structure (SMILES),pIC50 (p-AXL),pIC50 (Axl),pIC50 (recombinant human MER)
"Cc1cccnc1-n1cc(-c2n[nH]c3ncc(-c4ccc5c(c4)CC[C@@H](N4C6COCC4C6)CC5)cc23)cn1 [Example 79, 6-[(7S)-2-{3-[1-(3-Methylpyridin-2-yl)-1H-pyrazol-4-yl]-1H-pyrazolo[3,4-b]pyridin-5-yl}-6,7,8,9-tetrahydro-5H-benzo[7]annulen-7-yl]-3-oxa-6-azabicyclo[3.1.1]heptane]",> 7.00,> 7.00,6.00 to 7.00
"Cc1ccc(C)c(-c2ccc(-c3c[nH]c4ncc(-c5ccc6c(c5)CC[C@@H](N5C7COC[C@H]5C7)CC6)cc34)c(F)c2)n1 [Example 144, (1R)-6-[(7S)-2-{3-[4-(3,6-Dimethylpyridin-2-yl)-2-fluorophenyl]-1H-pyrrolo[2,3-b]pyridin-5-yl}-6,7,8,9-tetrahydro-5H-benzo[7]annulen-7-yl]-3-oxa-6-azabicyclo[3.1.1]heptane]",> 7.00,> 7.00,
"Cc1cnc(C)c(-c2ccc(-c3c[nH]c4ncc(-c5ccc6c(c5)CC[C@@](C)(N5CCC[C@H]5C)CC6)cc34)nc2)n1 [Example 68, 2,5-Dimethyl-3-(6-{5-[(7S)-7-methyl-7-[(2R)-2-methylpyrrolidin-1-yl]-6,7,8,9-tetrahydro-5H-benzo[7]annulen-2-yl]-1H-pyrrolo[2,3-b]pyridin-3-yl}pyridin-3-yl)pyrazine]",> 7.00,> 7.00,
"Cc1cnc(C)c(-c2ccc(-c3n[nH]c4ncc(-c5ccc6c(c5)CC[C@@H](N5C7COCC5C7)CC6)cc34)cc2)n1 [Example 65, 6-[(7S)-2-{3-[4-(3,6-Dimethylpyrazin-2-yl)phenyl]-1H-pyrazolo[3,4-b]pyridin-5-yl}-6,7,8,9-tetrahydro-5H-benzo[7]annulen-7-yl]-3-oxa-6-azabicyclo[3.1.1]heptane]",> 7.00,> 7.00,
"O=C1OCCN1c1nccnc1-c1ccc(-c2n[nH]c3ncc(-c4ccc5c(c4)CC[C@@H](N4C6COCC4C6)CC5)cc23)cc1 [Example 126, 3-[3-(4-{5-[(7S)-7-{3-Oxa-6-azabicyclo[3.1.1]heptan-6-yl}-6,7,8,9-tetrahydro-5H-benzo[7]annulen-2-yl]-1H-pyrazolo[3,4-b]pyridin-3-yl}phenyl)pyrazin-2-yl]-1,3-oxazolidin-2-one]",6.00 to 7.00,> 7.00,6.00 to 7.00
"Cc1cnc(C)c(-c2ccc(-c3c[nH]c4ncc(-c5ccc6c(c5)CC[C@@H](N5C7COCC5C7)CC6)cc34)nc2)n1 [Example 69, 6-[(7S)-2-{3-[5-(3,6-Dimethylpyrazin-2-yl)pyridin-2-yl]-1H-pyrrolo[2,3-b]pyridin-5-yl}-6,7,8,9-tetrahydro-5H-benzo[7]annulen-7-yl]-3-oxa 6-azabicyclo[3.1.1]heptane]",6.00 to 7.00,> 7.00,

# The remaining lines, values ahead:
pIC50 (p-AXL),pIC50 (Axl),pIC50 (recombinant human MER),Structure (SMILES)
> 7.00,> 7.00,6.00 to 7.00,"Cc1ccc(C)c(-c2ccc(-c3n[nH]c4ncc(-c5ccc6c(c5)CC[C@@H](N5C7COC[C@H]5C7)CC6)cc34)nc2)n1 [Example 9, 3,6-Dimethyl-6′-{5-[(7S)-7-[(1R)-3-oxa-6-azabicyclo[3.1.1]heptan-6-yl]-6,7,8,9-tetrahydro-5H-benzo[7]annulen-2-yl]-1H-pyrazolo[3,4-b]pyridin-3-yl}-2,3′-bipyridine]"
> 7.00,> 7.00,6.00 to 7.00,"Cc1cccnc1-c1ccc(-c2n[nH]c3ncc(-c4ccc5c(c4)CC[C@@H](N4C6COCC4C6)CC5)cc23)nn1 [Example 17, 6-[(7S)-3-[3-[6-(3-Methylpyridin-2-yl)pyridazin-3-yl]-1H-pyrazolo[3,4-b]pyridin-5-yl]-6,7,8,9-tetrahydro-5H-benzo[7]annulen-7-yl]-3-oxa-6-azabicyclo[3.1.1]heptane]"
> 7.00,> 7.00,< 6.00,"Cc1nccnc1-c1ccc(-c2n[nH]c3ncc(-c4ccc5c(c4)CC[C@@H](N4C6COCC4C6)CC5)cc23)nc1 [Example 55, 6-[(7S)-2-{3-[5-(3-Methylpyrazin-2-yl)pyridin-2-yl]-1H-pyrazolo[3,4-b]pyridin-5-yl}-6,7,8,9-tetrahydro-5H-benzo[7]annulen-7-yl]-3-oxa-6-azabicyclo[3.1.1]heptane]"

# From patent US12195482B1 (Arcus Biosciences, Inc., priority 2022, dated 2025)
